9 compounds from publication PMC9312238, “Novel Organoselenium Redox Modulators with Potential Anticancer, Antimicrobial, and Antioxidant Activities” (Antioxidants, 2022) can be followed below.

Like-named read-outs stand apart in the source and are kept apart here.

Broadly, the melting point is the temperature, or range, at which the solid turns liquid. One may read the IC50 as the concentration that inhibits the measured activity by half.

One data set concerns Escherichia coli. Description: Agar diffusion assay, E. coli. The data set is classed as cell-based. Set-up: E. coli A% (activity index): concentration or dose not given beside the values. The settings on record: for zone of inhibition at 20 µM: Escherichia coli, read-out: E. coli IZD (mm); for E. coli A% (activity index): zone of test compound / zone of standard (ampicillin) x 100.

Another data set relates to Staphylococcus aureus. As to the kind of experiment: Agar diffusion assay, S. aureus. The data set is classed as cell-based. Set-up: S. aureus A% (activity index): concentration or dose not given beside the values. The settings on record: for zone of inhibition at 20 µM: Staphylococcus aureus, read-out: S. aureus IZD (mm); for S. aureus A% (activity index): zone of test compound / zone of standard (ampicillin) x 100. As to the method:
(§1) The antimicrobial activities of the OSe compounds were evaluated against C. albicans yeast, as well as E. coli and S. bacteria, employing the agar well diffusion assay. Furthermore, the MICs (in µM) were determined by the microdilution method according to the reported protocol. More details are in the Supporting Information.
(§2) Compounds were evaluated for their antimicrobial activity against the Gram-negative bacteria Escherichia coli (E. coli) and the Gram-positive bacteria Staphylococcus aureus (S. aureus), as well as the Candida albicans (C. albicans) fungal strain, using the agar diffusion assay. Ampicillin and clotrimazole were used as standards. Indeed, the antimicrobial properties of the OSe compounds were also obtained from the activity index percentage (A%) according to Equation (2). (2) A%=Zone of inhibition by test compound diametre/Zone of inhibition by standard diametre×100 . […]
(§3) 1.1.1. The antimicrobial activity
The antimicrobial activities of the OSe compounds were evaluated against C. albicans yeast as well as E. coli gram-negative and S. aureus gram-positive bacteria employing the agar well diffusion assay. Briefly, a concentration of 1 mM was prepared for each compound by dissolving in DMSO. Paper discs of standard size […] were steri-lized in an autoclave and soaked in 20 µL of the test compounds, and placed in the Petri dishes, which in turn contain a nutrient media (agar 20 g, peptone 5 g, and beef extract 3 g) seeded with the dedicated strain. Incubation lasted for 24 h at 36
(§4) Furthermore, the MICs (in µM) were determined by the microdilution method according to the reported protocol. […]
(§5) Inhibition%= (Ablank-Asample)/(Ablank)*100. (1)
On the technique in general: A growth-free zone around the sample is the usual read-out of agar diffusion tests.

The test system of another data set is HepG2 cells. Description: cells. It counts as cell-based, human. The settings on record: for IC50: Homo sapiens. As to the method:
(§6) Cells were obtained from the ATCC Company (VACSERA), Cairo, Egypt. MTT assay were performed according to the literature method. More details are in the Supporting Information.
(§7) Recently, OSe compounds gained much attention as possible drug candidates due to their various pharmacological properties. Our group has reported several OSe candidates with potential anticancer, antimicrobial, and antioxidant activities. Therefore, the anticancer attributes of the newly prepared OSe compounds were estimated using the MTT assay against MCF-7 and HepG2 and compared with their respective cytotoxicity in WI-38 primary cells. The anthracycline drug doxorubicin was used as the standard. The minimal inhibition concentration required to kill 50% of the cells (IC50) was calculated from dose-response curves presented in Table 1. Moreover, the therapeutic index (TI) was also calculated (according to Equation (1)), which is considered a measure of the selectivity and safety of the synthesized compounds. (1) TI=IC50 for the normal WI38 cells/IC50 for the cancer cells […]
(§8) 1.1. The biological assays
(§9) 1.1.1. The anticancer activity
The breast adenocarcinoma (MCF-7), Hepatocellular carcinoma (HEPG-2), and nor-mal fibroblast (WI-38) cells were obtained from ATCC via Holding company for biological products and vaccines (VACSERA), Cairo, Egypt. The reagents RPMI-1640 medium, MTT, DMSO, and fetal bovine serum was obtained from Sigma Aldrich. Dulbecco’s modified Eagle’s medium was used as the culture medium for the cells, and the cytotoxicity was evaluated using the reported MTT assay. Doxorubicin was used as the positive reference, and the IC50 values were obtained from the corresponding dose-response curve.
This colorimetric assay is based on converting the yellow tetrazolium bromide (MTT) to a purple formazan derivative by mitochondrial succinate dehydrogenase in viable cells.
(§10) Cell lines were cultured in RPMI-1640 medium with 10% fetal bovine serum. Antibiotics added were 100 units/ml penicillin and 100µg/ml streptomycin at 37 C in a 5% Co2 incu-bator. The cell lines were seeded in a 96-well plate at a density of 1.0x10^4 cells/well. at 37 C for 48 h under 5% Co2. After incubation, the cells were treated with different concentra-tions of compounds and incubated for 24 h. After 24 h of drug treatment, 20 µl of MTT solution at 5mg/ml was added and incubated for 4 h. Finally, dimethyl sulfoxide (DMSO) in the volume of 100 µl is added to each well to dissolve the purple formazan formed. The colorimetric assay is measured and recorded at an absorbance of 570 nm using a plate reader (EXL 800, USA). The percentage of the relative cell viability was calculated as (A570 of treated samples/A570 of the untreated sample) X 100. […]
as §5

A further data set concerns WI-38 cells. As to the kind of experiment: cells. The data set is classed as cell-based, human. The settings on record: Homo sapiens. As to the method: as §6
as §7, with “Our group has reported several OSe candidates with potential anticancer, antimicrobial, and antioxidant activities.” left out, “The minimal inhibition concentration required to kill 50% of the cells (IC50) was calculated from dose-response curves presented in Table 1.” left out
as §8, §9
(§11) The breast adenocarcinoma (MCF-7), Hepatocellular carcinoma (HEPG-2), and nor-mal fibroblast (WI-38) cells were obtained from ATCC via Holding company for biological products and vaccines (VACSERA), Cairo, Egypt.
(§12) DMSO, and fetal bovine serum was obtained from Sigma Aldrich. Dulbecco’s modified Eagle’s medium was used as the culture medium for the cells, and the cytotoxicity was evaluated using the reported MTT assay. Doxorubicin was used as the positive reference, and the IC50 values were obtained from the corresponding dose-response curve.
(§13) This colorimetric assay is based on converting the yellow tetrazolium bromide (MTT) to a purple formazan derivative by mitochondrial succinate dehydrogenase in viable cells. […]
as §10, with “added” for “Cell lines were cultured in RPMI-1640 medium with 10% fetal bovine serum. Antibiotics added”, “plate” for “plate reader (EXL 800, USA). The percentage of the relative cell viability was calculated as (A570 of treated samples/A570 of the untreated sample) X 100.”
(§14) The percentage of the relative cell viability was calculated as (A570 of treated samples/A570 of the untreated sample) X 100. […]

Another data set has as its system MCF-7 cells. As to the kind of experiment: cells. The data set is classed as cell-based, human. The settings on record: for IC50: Homo sapiens; for MCF7 TI (IC50 WI-38 / IC50 MCF-7): therapeutic index, ratio of WI-38 IC50 to MCF-7 IC50. The method, then: as §6
as §7, with “Our group has reported several OSe candidates with potential anticancer, antimicrobial, and antioxidant activities.” left out, “The minimal inhibition concentration required to kill 50% of the cells (IC50) was calculated from dose-response curves presented in Table 1.” left out
as §8, §9, §11, §12, §13
as §10, with “added” for “Cell lines were cultured in RPMI-1640 medium with 10% fetal bovine serum. Antibiotics added”, “plate” for “plate reader (EXL 800, USA). The percentage of the relative cell viability was calculated as (A570 of treated samples/A570 of the untreated sample) X 100.”
as §14

A further data set deals with Candida albicans. Description: microbe, parasite or virus in culture. It counts as cell-based. The method, then: as §1, §2, §3
The antimicrobial activities of the OSe compounds were evaluated against C. albicans yeast as well as E. coli gram-negative and S. aureus gram-positive bacteria employing the agar well diffusion assay. […]
compound by dissolving in DMSO. […]
Petri dishes, which in turn contain a nutrient media (agar 20 g, peptone 5 g, and beef extract 3 g) seeded with the dedicated strain. Incubation lasted for 24 h at 36
as §4, §5

Setting [1] is: inhibition zone diameter, six-mm disks soaked with 20 μM of compound.
Setting [2] is: MTT, 24 h incubation, HepG2 cells, read-out: HepG2 IC50.
Where [3] appears, read: MTT, 24 h incubation, normal WI-38 cells, read-out: WI38 IC50.
Setting [4] is: MCF7, MTT, 24 h incubation, MCF-7 cells, read-out: MCF7 IC50.

Consider `O=C(C[Se]c1ccc(N=Cc2ccccc2O)cc1)Nc1ccccc1`, for which the melting point was found to be 150.3 °C.

Consider `CC1(C)S[C@@H]2[C@H](NC(=O)[C@H](N)c3ccccc3)C(=O)N2[C@H]1C(=O)O` [Ampicillin, ampicillin, reference compound], for which the zone of inhibition at 20 µM was determined as 23 mm with Escherichia coli (setting [1]) and 21 mm in the data set with Staphylococcus aureus (setting [1]). Further, in the data set with Escherichia coli, the “E. coli A% (activity index)” value turned out to be 100%. In addition, the “S. aureus A% (activity index)” value with Staphylococcus aureus is given as 100%.

`N#CC(C#N)=NNc1ccc([Se]CC(=O)Nc2ccccc2)cc1` [Compound 7] returned a melting point of 177 to 179 °C. In addition, in the data set on Escherichia coli, the zone of inhibition at 20 µM is 3 mm and the “E. coli A% (activity index)” value is recorded as 13%. Besides, in the data set with Staphylococcus aureus, the zone of inhibition at 20 µM stood at 6 mm and the “S. aureus A% (activity index)” value turned out to be 29%. Besides, in the data set with HepG2 cells (HepG2, 24 h, read-out: HepG2 IC50 (µM)), the IC50 is above 100 µM. Further, the IC50 with WI-38 cells (WI-38, 24 h, read-out: WI38 IC50 (µM)) is above 100 µM. The IC50 in the data set with MCF-7 cells (MCF7, 24 h, read-out: MCF7 IC50 (µM)) is above 100 µM.

`CC1=NN(c2ccccc2)C(=O)C1=NNc1ccc([Se]CC(=O)Nc2ccccc2)cc1` [Compound 8, 2-((4-(2-(3-methyl-5-oxo-1-phenyl-1H-pyrazol-4(5H)-ylidene)hydrazinyl)phenyl)selanyl)-N-phenylacetamide] displayed a melting point of 197 to 199 °C. Further, the zone of inhibition at 20 µM in the data set with Staphylococcus aureus (setting [1]) was 4 mm. Also, the “S. aureus A% (activity index)” value in the data set with Staphylococcus aureus came to 19%. Moreover, the IC50 in the data set with HepG2 cells (setting [2]) was above 100 µM. For the same compound, the IC50 with WI-38 cells (setting [3]) was above 100 µM. Moreover, the IC50 in the data set with MCF-7 cells (setting [4]) was above 100 µM.

Regarding `O=C(O)C=CC(=O)Nc1ccc([Se]CC(=O)Nc2ccccc2)cc1` [Compound 10, 4-oxo-4-((4-((2-oxo-2-(phenylamino)ethyl)selanyl)phenyl)amino)but-2-enoic acid], the zone of inhibition at 20 µM in the data set with Escherichia coli (setting [1]) amounted to 9 mm; with Candida albicans (Candida albicans, inhibition zone diameter, six-mm disks soaked with 20 μM of compound, read-out: C. albicans IZD (mm)), 8 mm; in the data set on Staphylococcus aureus (setting [1]), 11 mm. The “E. coli A% (activity index)” value in the data set on Escherichia coli stood at 39%. The “C. albicans A% (activity index)” value in the data set on Candida albicans (zone of test compound / zone of standard (clotrimazole) x 100) came out at 33%. Also, the “S. aureus A% (activity index)” value with Staphylococcus aureus was determined as 52%. Besides, the IC50 in the data set with HepG2 cells (setting [2]) was above 100 µM; in the data set on WI-38 cells (setting [3]), 46 ± 2.9 µM; in the data set with MCF-7 cells (setting [4]) it was 34.8 ± 2.5 µM. Also, in the data set with MCF-7 cells, the “MCF7 TI (IC50 WI-38 / IC50 MCF-7)” value was 1.3.

As to `O=C(C[Se]c1ccc(N2C(=O)C=CC2=O)cc1)Nc1ccccc1` [Compound 13, 2-((4-(2,5-dioxo-2,5-dihydro-1H-pyrrol-1-yl)phenyl)selanyl)-N-phenylacetamide], the melting point was in the range of 169 to 170 °C. Moreover, the zone of inhibition at 20 µM in the data set on Escherichia coli (setting [1]) turned out to be 5 mm. Moreover, the “E. coli A% (activity index)” value with Escherichia coli was 22%. The zone of inhibition at 20 µM in the data set with Staphylococcus aureus (setting [1]) was 6 mm. Besides, in the data set on Staphylococcus aureus, the “S. aureus A% (activity index)” value stood at 29%. Also, the IC50 in the data set on HepG2 cells (setting [2]) is above 100 µM. The IC50 in the data set with WI-38 cells (setting [3]) was above 100 µM. The IC50 with MCF-7 cells (setting [4]) is above 100 µM.

For the compound `O=CNc1ccc([Se]CC(=O)Nc2ccccc2)cc1` [Compound 17, 2-((4-formamidophenyl)selanyl)-N-phenylacetamide], the melting point fell in the range of 143 to 144 °C. Further, the IC50 in the data set with HepG2 cells (setting [2]) was above 100 µM. Moreover, in the data set on WI-38 cells (setting [3]), the IC50 is above 100 µM. Further, the IC50 with MCF-7 cells (setting [4]) is above 100 µM.

Take `O=C(CCl)Nc1ccc([Se]CC(=O)Nc2ccccc2)cc1` [Compound 19]: the melting point was 184.8 °C. Moreover, the IC50 in the data set on HepG2 cells (setting [2]) was above 100 µM. In addition, the IC50 in the data set with WI-38 cells (setting [3]) was above 100 µM. Further, in the data set on MCF-7 cells (setting [4]), the IC50 was above 100 µM.

For `COc1cccc2c1C(=O)c1c(O)c3c(c(O)c1C2=O)C[C@@](O)(C(=O)CO)C[C@@H]3O[C@H]1C[C@H](N)[C@H](O)[C@H](C)O1` [Doxorubicin, doxorubicin, reference compound], the IC50 with HepG2 cells (setting [2]) was 4.5 ± 0.2 µM. Also, the “HepG2 TI (IC50 WI-38 / IC50 HepG2)” value in the data set with HepG2 cells (therapeutic index, ratio of WI-38 IC50 to HepG2 IC50) is reported as 1.5. Also, the “MCF7 TI (IC50 WI-38 / IC50 MCF-7)” value with MCF-7 cells is on record as 1.6.
